Assay results reported in patent publication US20230257715A1, “COMPOSITIONS AND METHODS FOR REGULATING ENTEROENDOCRINE CELL DIFFERENTIATION AND USES THEREOF” (The Children's Medical Center Corporation, priority 2020, published 2023).

B1: betacellulin (protein, UniProt P35070 32-111, looked up)
Betacellulin: DGNSTRSPETNGLLCGDPEENCAATTTQSKRKGHFSRCPKQYKHYCIKGRCRFVVAEQTPSCVCDEGYIGARCERVDLFY
modifications: Betacellulin
notes: a ligand of both EGFR and the ErbB4 receptor

Experiments:
[1] = literature (Sathyapalan et al. 2010); cited from earlier work
human duodenal enteroids = assay: qPCR analysis of enteroendocrine and lineage markers in enteroids; format: cell-based; settings: for EE cell marker expression on inclusion in DM: compared with GM and DM without betacellulin or PF, qPCR
Description: For differentiation, enteroids were passaged and grown in GM for two days, to allow for ISC expansion, after which the organoids were transitioned to tissue-specific differentiation media (DM) with additional small molecules added as described (TABLE 1A and TABLE 1B). Media was changed every two days, with Tubastatin A being removed after the second day of differentiation. Enteroids and rectoids were taken for analysis after 14 days.
Total RNA was purified from individual wells using TRI®Reagent (Sigma) and the Direct-zol™ RNA kit (Zymo Research), following the manufacturer's protocol. RNA concentration was determined using a NanoDrop™ 1000 spectrophotometer (Life Technologies). RNA was treated with DNAse (Promega) and reverse transcribed using the High-Capacity cDNA Reverse Transcription Kit (Life Technologies). Gene expression analysis was then performed by Real Time quantitative PCR (qPCR) using a QuantStudio 6 Flex thermocycler (Life Technologies). Taqman primers from Life Technologies (TABLE 3) were used. 18S transcripts were used as the internal control and data were expressed using the 2^−ddCt method with Ct limit of 40. Fold change, unless otherwise stated, was compared to total RNA derived from adult whole mucosal tissue biopsies.

GATA4-NKX2-5 = settings: in vitro, literature (Valimaki et al. 2017); cited from earlier work

Row | Molecule | human serum GIP levels [1] | EE lineage marker mRNA expression when added to DM (qPCR) (human duodenal enteroids; compared to enteroids grown in G2D12, FIG. 2.1A) | GATA4-NKX2-5 transcriptional activity (GATA4-NKX2-5) | EE cell marker expression on inclusion in DM (human duodenal enteroids)
1 | Cc1c(C(=O)NN2CCCCC2)nn(-c2ccc(Cl)cc2Cl)c1-c1ccc(Cl)cc1 [Rim, rimonabant] | increase human serum GIP levels | induced expression of multiple EE lineage markers (CHGA, NEUROD1, NEUROG3, SST, and GIP) when added to DM, with Rim having a much larger effect | increase the activity of GATA4-NKX2-5 transcriptional activity in vitro | –
2 | Nc1ccc(-c2cnc(N)c(-c3ccc(Cl)cc3)c2)cn1 [PF, PF06260933] | – | – | – | increased expression of EE cell markers
3 | B1 | – | – | – | increased expression of EE cell markers
